The text below walks through data of US11324798B2, “Materials and methods for treatment of inflammation” (CYTOGEL PHARMA, LLC, priority 2010, dated 2022).

In the test the test system is mu opiate receptor. As to the kind of experiment: Binding to the mu opiate receptor.

On to H-Tyr-Pro-Trp-Phe-NH2 [SEQ ID NO:1], for which the “Potency for the mu opiate receptor” value was “very potent”.
